Measurements taken from patent publication US7261906B2, “Anti-cancer therapy agent of arsenic hexoxide (As4O6) of a natural chemical substance and its pharmaceutical composition” (priority 1998, dated 2007).

Assay: Acute toxicity, single oral administration
Format: in vivo, Rats (Sprague Dawley strain)
Settings: for Mortality, Days after treatment 1 / Mortality, Days after treatment 2 / Mortality, Days after treatment 3 / Mortality, Days after treatment 4 / Mortality, Days after treatment 5 / Mortality, Days after treatment 6 / Mortality, Days after treatment 7 / Mortality, Days after treatment 8 / Mortality, Days after treatment 9 / Mortality, Days after treatment 10 / Mortality, Days after treatment 11 / Mortality, Days after treatment 12 / Mortality, Days after treatment 13 / Mortality, Days after treatment 14 / Mortality, Hours after treatment 1 / Mortality, Hours after treatment 2 / Mortality, Hours after treatment 3 / Mortality, Hours after treatment 4 / Mortality, Hours after treatment 5 / Mortality, Hours after treatment 6 / Final mortality / Final mortality (dead/total): Female; for Final mortality / Final mortality (dead/total): 14 days; for LD50 (50% Lethal Dose): oral administration
Experimental: The acute toxicity of oral administration of HD-2 was evaluated according to toxicity assessment criteria described in Article 96-8 of Notice on Food and Drug Safety (Apr. 16, 1994). Rats (Sprague Dawley strain) were used for animal experiments. Dosage of a single, oral administration ranged from 0.4 to 1.25 g/kg body weight in male rats and 0.4 to […] body weight in female rats. General conditions of the animals, toxic symptoms, and mortality were measured every hour for the initial 6 hours following the single administration and once a day afterwards for 14 days. Body weights were measured before starting the study, 7 days after the administration, and at autopsy. Expired rats were studied to find the cause of death at autopsy. […] Some rats manifesting these clinical symptoms expired, but others recovered to normal condition within 2 to 3 days of clinical symptoms.

O1[As]2O[As]3O[As]1O[As](O2)O3 [HD-2, arsenic hexoxide (As4O6)]
4/5: Final mortality (dead/total) (0.62 g/kg B.W. oral)
0: Mortality, Days after treatment 1 (0.4 g/kg B.W. oral) | Mortality, Days after treatment 2 (0.4 g/kg B.W. oral) | Mortality, Days after treatment 3 (0.4 g/kg B.W. oral) | Mortality, Days after treatment 4 (0.4 g/kg B.W. oral) | Mortality, Days after treatment 5 (0.4 g/kg B.W. oral) | Mortality, Days after treatment 6 (0.4 g/kg B.W. oral) | Mortality, Days after treatment 7 (0.4 g/kg B.W. oral) | Mortality, Days after treatment 8 (0.4 g/kg B.W. oral) | Mortality, Days after treatment 9 (0.4 g/kg B.W. oral) | Mortality, Days after treatment 10 (0.4 g/kg B.W. oral) | Mortality, Days after treatment 11 (0.4 g/kg B.W. oral) | Mortality, Days after treatment 12 (0.4 g/kg B.W. oral) | Mortality, Days after treatment 13 (0.4 g/kg B.W. oral) | Mortality, Days after treatment 14 (0.4 g/kg B.W. oral) | Mortality, Hours after treatment 1 (0.4 g/kg B.W. oral) | Mortality, Hours after treatment 2 (0.4 g/kg B.W. oral) | Mortality, Hours after treatment 3 (0.4 g/kg B.W. oral) | Mortality, Hours after treatment 4 (0.4 g/kg B.W. oral) | Mortality, Hours after treatment 5 (0.4 g/kg B.W. oral) | Mortality, Hours after treatment 6 (0.4 g/kg B.W. oral) | Mortality, Days after treatment 1 (0.5 g/kg B.W. oral) | Mortality, Days after treatment 2 (0.5 g/kg B.W. oral) | Mortality, Days after treatment 3 (0.5 g/kg B.W. oral) | Mortality, Days after treatment 4 (0.5 g/kg B.W. oral) | Mortality, Days after treatment 5 (0.5 g/kg B.W. oral) | Mortality, Days after treatment 6 (0.5 g/kg B.W. oral) | Mortality, Days after treatment 7 (0.5 g/kg B.W. oral) | Mortality, Days after treatment 8 (0.5 g/kg B.W. oral) | Mortality, Days after treatment 9 (0.5 g/kg B.W. oral) | Mortality, Days after treatment 10 (0.5 g/kg B.W. oral) | Mortality, Days after treatment 11 (0.5 g/kg B.W. oral) | Mortality, Days after treatment 12 (0.5 g/kg B.W. oral) | Mortality, Days after treatment 13 (0.5 g/kg B.W. oral) | Mortality, Days after treatment 14 (0.5 g/kg B.W. oral) | Mortality, Hours after treatment 1 (0.5 g/kg B.W. oral) | Mortality, Hours after treatment 2 (0.5 g/kg B.W. oral) | Mortality, Hours after treatment 3 (0.5 g/kg B.W. oral) | Mortality, Hours after treatment 4 (0.5 g/kg B.W. oral) | Mortality, Hours after treatment 5 (0.5 g/kg B.W. oral) | Mortality, Hours after treatment 6 (0.5 g/kg B.W. oral) | Mortality, Days after treatment 3 (0.58 g/kg B.W. oral) | Mortality, Days after treatment 4 (0.58 g/kg B.W. oral) | Mortality, Days after treatment 5 (0.58 g/kg B.W. oral) | Mortality, Days after treatment 6 (0.58 g/kg B.W. oral) | Mortality, Days after treatment 7 (0.58 g/kg B.W. oral) | Mortality, Days after treatment 8 (0.58 g/kg B.W. oral) | Mortality, Days after treatment 9 (0.58 g/kg B.W. oral) | Mortality, Days after treatment 10 (0.58 g/kg B.W. oral) | Mortality, Days after treatment 11 (0.58 g/kg B.W. oral) | Mortality, Days after treatment 12 (0.58 g/kg B.W. oral) | Mortality, Days after treatment 13 (0.58 g/kg B.W. oral) | Mortality, Days after treatment 14 (0.58 g/kg B.W. oral) | Mortality, Hours after treatment 1 (0.58 g/kg B.W. oral) | Mortality, Hours after treatment 2 (0.58 g/kg B.W. oral) | Mortality, Hours after treatment 3 (0.58 g/kg B.W. oral) | Mortality, Hours after treatment 4 (0.58 g/kg B.W. oral) | Mortality, Hours after treatment 5 (0.58 g/kg B.W. oral) | Mortality, Hours after treatment 6 (0.58 g/kg B.W. oral) | Mortality, Days after treatment 3 (0.62 g/kg B.W. oral) | Mortality, Days after treatment 4 (0.62 g/kg B.W. oral) | Mortality, Days after treatment 5 (0.62 g/kg B.W. oral) | Mortality, Days after treatment 6 (0.62 g/kg B.W. oral) | Mortality, Days after treatment 7 (0.62 g/kg B.W. oral) | Mortality, Days after treatment 8 (0.62 g/kg B.W. oral) | Mortality, Days after treatment 9 (0.62 g/kg B.W. oral) | Mortality, Days after treatment 10 (0.62 g/kg B.W. oral) | Mortality, Days after treatment 11 (0.62 g/kg B.W. oral) | Mortality, Days after treatment 12 (0.62 g/kg B.W. oral) | Mortality, Days after treatment 13 (0.62 g/kg B.W. oral) | Mortality, Days after treatment 14 (0.62 g/kg B.W. oral) | Mortality, Hours after treatment 1 (0.62 g/kg B.W. oral) | Mortality, Hours after treatment 2 (0.62 g/kg B.W. oral) | Mortality, Hours after treatment 3 (0.62 g/kg B.W. oral) | Mortality, Hours after treatment 4 (0.62 g/kg B.W. oral) | Mortality, Hours after treatment 5 (0.62 g/kg B.W. oral) | Mortality, Hours after treatment 6 (0.62 g/kg B.W. oral) | Mortality, Days after treatment 2 (0.625 g/kg B.W. oral) | Mortality, Days after treatment 3 (0.625 g/kg B.W. oral) | Mortality, Days after treatment 4 (0.625 g/kg B.W. oral) | Mortality, Days after treatment 5 (0.625 g/kg B.W. oral) | Mortality, Days after treatment 6 (0.625 g/kg B.W. oral) | Mortality, Days after treatment 7 (0.625 g/kg B.W. oral) | Mortality, Days after treatment 8 (0.625 g/kg B.W. oral) | Mortality, Days after treatment 9 (0.625 g/kg B.W. oral) | Mortality, Days after treatment 10 (0.625 g/kg B.W. oral) | Mortality, Days after treatment 11 (0.625 g/kg B.W. oral) | Mortality, Days after treatment 12 (0.625 g/kg B.W. oral) | Mortality, Days after treatment 13 (0.625 g/kg B.W. oral) | Mortality, Days after treatment 14 (0.625 g/kg B.W. oral) | Mortality, Hours after treatment 1 (0.625 g/kg B.W. oral) | Mortality, Hours after treatment 2 (0.625 g/kg B.W. oral) | Mortality, Hours after treatment 3 (0.625 g/kg B.W. oral) | Mortality, Hours after treatment 4 (0.625 g/kg B.W. oral) | Mortality, Hours after treatment 5 (0.625 g/kg B.W. oral) | Mortality, Hours after treatment 6 (0.625 g/kg B.W. oral)
2/5: Final mortality (dead/total) (0.58 g/kg B.W. oral)
0.81 g/kg body weight: LD50 (50% Lethal Dose) (male rats)
0/5: Final mortality (dead/total) (0.4 g/kg B.W. oral) | Final mortality (dead/total) (0.5 g/kg B.W. oral)
1: Mortality, Days after treatment 1 (0.58 g/kg B.W. oral) | Mortality, Days after treatment 2 (0.58 g/kg B.W. oral) | Mortality, Days after treatment 2 (0.62 g/kg B.W. oral) | Mortality, Days after treatment 1 (0.625 g/kg B.W. oral)
0.58 g/kg body weight: LD50 (50% Lethal Dose) (female rats)
100%: Final mortality (0.625 g/kg B.W. oral)
40%: Final mortality (0.58 g/kg B.W. oral)
3: Mortality, Days after treatment 1 (0.62 g/kg B.W. oral)
did not show any significant difference: Changes in weight vs control group (all subgroups of different dosages)
0%: Final mortality (0.4 g/kg B.W. oral) | Final mortality (0.5 g/kg B.W. oral)
80%: Final mortality (0.62 g/kg B.W. oral)
5/5: Final mortality (dead/total) (0.625 g/kg B.W. oral)
